pIC50: −log10 of the molar value. The source made the active and inactive calls. No cut-off for these calls is given here.
Assays:
[1] = tested on: HCT-116; test: Inhibition of colony formation in human HCT-116 cells at […] preincubated with compound for 1 hr followed by exposure to 2 Gy gamma irradiation and measured after 7 days by crystal violet staining based chemiluminescence assay relative to control; type: functional; conditions: HCT-116, light or radiation study, dose 0.25 µM, time 169 hrs
[2] = in vitro; conditions: human, liver microsomes
[3] = molecular target: DNA-dependent protein kinase catalytic subunit (Homo sapiens, UniProt P78527)
Description: Inhibition of human DNA-PK incubated for 30 mins in presence of Mg/ATP by HTRF method

[4] = tested on: HCT-116; test: Inhibition of colony formation in human HCT-116 cells preincubated with compound for 1 hr followed by exposure to 2 Gy gamma irradiation and measured after 7 days by crystal violet staining based chemiluminescence assay; type: functional, cell-based; conditions: HCT-116, light or radiation study
[5] = tested on: NCI-H460; test: Antitumor activity against human NCI-H460 cells xenografted in BALB/ c nude mouse assessed as inhibition of tumor growth at 100 mg/kg, po administered once daily with 2 Gy irradiation and measured upto 7 days by vernier caliper analysis; type: functional, organism-based; conditions: time <= 7.0 day
[6] = in vivo; conditions: Sprague-Dawley, rat, po, 5 mg/kg
[7] = in vivo; conditions: Sprague-Dawley, rat, iv, 5 mg/kg
[8] = in vivo; conditions: Sprague-Dawley, rat, plasma, po, 5 mg/kg
Description: Clearance in Sprague-Dawley rat plasma at 5 mg/kg, po measured upto 24 hrs by LC-MS/MS analysis

[9] = in vivo; conditions: Sprague-Dawley, rat, plasma, iv, 5 mg/kg
Description: Clearance in Sprague-Dawley rat plasma at 5 mg/kg, iv measured upto 24 hrs by LC-MS/MS analysis

[10] = in vivo; conditions: Sprague-Dawley, rat, po, 5 mg/kg; remark: listed apart in the source
[11] = in vivo; conditions: Sprague-Dawley, rat, iv, 5 mg/kg; remark: listed apart in the source
[12] = in vivo; conditions: Sprague-Dawley, rat, po, 5 mg/kg; remark: listed apart in the source
[13] = in vivo; conditions: Sprague-Dawley, rat, iv, 5 mg/kg; remark: listed apart in the source
[14] = in vivo; conditions: Sprague-Dawley, rat, po, 5 mg/kg; remark: listed apart in the source

Sequence of DNA-dependent protein kinase catalytic subunit (P78527 whole entry): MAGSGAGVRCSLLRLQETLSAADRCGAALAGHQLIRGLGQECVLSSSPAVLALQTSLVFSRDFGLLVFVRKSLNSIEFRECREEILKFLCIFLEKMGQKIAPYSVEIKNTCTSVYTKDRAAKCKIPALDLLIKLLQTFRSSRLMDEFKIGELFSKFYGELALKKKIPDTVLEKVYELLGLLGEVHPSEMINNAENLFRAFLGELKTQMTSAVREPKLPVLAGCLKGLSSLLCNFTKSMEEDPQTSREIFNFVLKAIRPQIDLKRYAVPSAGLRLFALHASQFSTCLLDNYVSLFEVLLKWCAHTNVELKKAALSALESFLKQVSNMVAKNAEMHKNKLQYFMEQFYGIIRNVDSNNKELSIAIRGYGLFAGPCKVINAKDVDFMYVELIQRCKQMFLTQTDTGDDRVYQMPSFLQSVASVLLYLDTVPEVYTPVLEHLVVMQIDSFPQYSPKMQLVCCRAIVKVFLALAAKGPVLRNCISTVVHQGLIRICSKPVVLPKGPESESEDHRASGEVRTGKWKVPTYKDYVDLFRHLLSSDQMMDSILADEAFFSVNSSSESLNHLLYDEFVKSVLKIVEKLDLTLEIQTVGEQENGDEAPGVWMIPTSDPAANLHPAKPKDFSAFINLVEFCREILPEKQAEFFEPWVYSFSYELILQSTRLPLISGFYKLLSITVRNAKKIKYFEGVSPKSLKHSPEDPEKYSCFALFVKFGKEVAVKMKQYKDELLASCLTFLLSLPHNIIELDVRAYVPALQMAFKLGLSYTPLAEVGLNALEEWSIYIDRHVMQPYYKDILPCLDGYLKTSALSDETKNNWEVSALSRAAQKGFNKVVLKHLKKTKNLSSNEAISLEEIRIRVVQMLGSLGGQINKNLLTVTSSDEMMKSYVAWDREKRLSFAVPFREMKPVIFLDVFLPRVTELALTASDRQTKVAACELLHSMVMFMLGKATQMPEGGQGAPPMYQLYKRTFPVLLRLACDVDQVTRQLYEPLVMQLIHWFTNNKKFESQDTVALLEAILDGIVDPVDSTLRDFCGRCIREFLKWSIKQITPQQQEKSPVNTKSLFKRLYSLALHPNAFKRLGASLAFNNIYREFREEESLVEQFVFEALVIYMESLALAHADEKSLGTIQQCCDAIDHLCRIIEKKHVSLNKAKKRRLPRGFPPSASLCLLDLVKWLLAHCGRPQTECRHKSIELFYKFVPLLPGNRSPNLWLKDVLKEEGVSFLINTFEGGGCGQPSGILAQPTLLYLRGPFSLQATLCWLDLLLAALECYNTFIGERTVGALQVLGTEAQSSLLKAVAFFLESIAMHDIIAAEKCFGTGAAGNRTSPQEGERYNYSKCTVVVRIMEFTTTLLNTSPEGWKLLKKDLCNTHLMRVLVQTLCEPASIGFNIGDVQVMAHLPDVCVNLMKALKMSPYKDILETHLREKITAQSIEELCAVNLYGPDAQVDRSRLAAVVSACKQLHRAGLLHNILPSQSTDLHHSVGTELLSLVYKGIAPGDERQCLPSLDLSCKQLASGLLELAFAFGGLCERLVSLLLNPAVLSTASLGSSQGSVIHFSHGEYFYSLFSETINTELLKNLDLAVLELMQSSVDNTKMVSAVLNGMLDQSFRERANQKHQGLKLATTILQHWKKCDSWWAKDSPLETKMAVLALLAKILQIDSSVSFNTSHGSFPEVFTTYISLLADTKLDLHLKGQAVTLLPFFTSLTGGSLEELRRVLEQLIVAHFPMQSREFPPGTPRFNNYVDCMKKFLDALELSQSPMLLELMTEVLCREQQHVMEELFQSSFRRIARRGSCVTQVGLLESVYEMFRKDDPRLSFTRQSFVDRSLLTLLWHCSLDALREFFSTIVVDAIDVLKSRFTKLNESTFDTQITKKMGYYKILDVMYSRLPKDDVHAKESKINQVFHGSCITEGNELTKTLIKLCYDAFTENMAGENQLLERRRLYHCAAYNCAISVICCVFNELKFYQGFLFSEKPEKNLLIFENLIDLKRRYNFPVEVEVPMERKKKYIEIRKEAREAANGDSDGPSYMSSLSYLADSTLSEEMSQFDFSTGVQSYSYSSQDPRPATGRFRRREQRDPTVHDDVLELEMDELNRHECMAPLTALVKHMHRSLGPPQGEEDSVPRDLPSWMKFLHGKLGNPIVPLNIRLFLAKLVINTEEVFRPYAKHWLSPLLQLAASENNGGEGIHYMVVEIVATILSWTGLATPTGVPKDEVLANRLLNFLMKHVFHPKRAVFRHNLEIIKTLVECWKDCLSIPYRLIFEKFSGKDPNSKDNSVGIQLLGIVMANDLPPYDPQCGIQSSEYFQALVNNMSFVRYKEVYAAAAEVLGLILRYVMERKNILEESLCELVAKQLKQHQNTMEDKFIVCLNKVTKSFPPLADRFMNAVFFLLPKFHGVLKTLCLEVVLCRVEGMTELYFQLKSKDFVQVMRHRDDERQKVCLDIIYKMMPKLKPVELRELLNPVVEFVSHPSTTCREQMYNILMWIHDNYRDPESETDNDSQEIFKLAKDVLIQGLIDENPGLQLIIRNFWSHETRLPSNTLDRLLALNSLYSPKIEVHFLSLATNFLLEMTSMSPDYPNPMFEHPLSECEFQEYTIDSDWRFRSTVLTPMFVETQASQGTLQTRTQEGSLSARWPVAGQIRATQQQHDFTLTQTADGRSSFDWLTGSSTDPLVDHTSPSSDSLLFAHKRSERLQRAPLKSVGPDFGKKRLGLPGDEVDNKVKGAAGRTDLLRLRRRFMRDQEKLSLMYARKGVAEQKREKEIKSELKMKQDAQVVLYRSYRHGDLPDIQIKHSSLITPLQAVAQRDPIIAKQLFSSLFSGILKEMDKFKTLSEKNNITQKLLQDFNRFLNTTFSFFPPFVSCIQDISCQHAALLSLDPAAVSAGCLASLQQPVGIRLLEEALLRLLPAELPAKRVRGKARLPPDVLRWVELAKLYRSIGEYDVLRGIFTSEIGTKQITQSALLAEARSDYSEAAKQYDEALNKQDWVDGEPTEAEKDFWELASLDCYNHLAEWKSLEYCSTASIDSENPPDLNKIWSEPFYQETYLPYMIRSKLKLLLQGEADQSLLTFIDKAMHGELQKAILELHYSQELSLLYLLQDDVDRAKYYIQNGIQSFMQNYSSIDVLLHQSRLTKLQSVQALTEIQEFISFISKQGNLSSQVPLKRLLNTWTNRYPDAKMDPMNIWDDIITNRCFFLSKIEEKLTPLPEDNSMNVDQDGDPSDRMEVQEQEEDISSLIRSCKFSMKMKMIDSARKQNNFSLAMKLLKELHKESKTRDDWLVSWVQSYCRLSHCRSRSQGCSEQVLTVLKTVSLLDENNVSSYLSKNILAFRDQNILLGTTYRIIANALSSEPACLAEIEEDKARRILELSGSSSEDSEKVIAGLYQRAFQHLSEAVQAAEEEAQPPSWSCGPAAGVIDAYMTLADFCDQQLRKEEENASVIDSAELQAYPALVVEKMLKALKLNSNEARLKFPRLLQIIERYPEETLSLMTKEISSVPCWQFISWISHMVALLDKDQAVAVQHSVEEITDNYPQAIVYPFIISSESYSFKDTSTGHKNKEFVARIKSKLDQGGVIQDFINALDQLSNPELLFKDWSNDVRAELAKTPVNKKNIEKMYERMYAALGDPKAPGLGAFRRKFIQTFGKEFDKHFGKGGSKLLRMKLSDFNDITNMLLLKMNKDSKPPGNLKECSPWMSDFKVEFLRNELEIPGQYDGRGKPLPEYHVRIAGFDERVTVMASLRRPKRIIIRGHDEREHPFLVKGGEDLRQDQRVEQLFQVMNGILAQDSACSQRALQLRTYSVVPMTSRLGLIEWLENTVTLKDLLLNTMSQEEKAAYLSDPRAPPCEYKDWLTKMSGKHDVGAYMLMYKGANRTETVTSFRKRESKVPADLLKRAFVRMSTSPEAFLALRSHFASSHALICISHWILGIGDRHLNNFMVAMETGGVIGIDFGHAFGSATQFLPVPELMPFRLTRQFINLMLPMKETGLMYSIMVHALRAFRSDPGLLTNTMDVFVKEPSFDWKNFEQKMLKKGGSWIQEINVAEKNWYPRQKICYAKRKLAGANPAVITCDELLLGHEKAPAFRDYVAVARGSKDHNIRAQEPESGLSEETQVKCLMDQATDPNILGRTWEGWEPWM

half-life at 5 min, 1 µM [2] | pIC50 [3] | SMILES | inhibition at […] [1] | further results
0.213 h | – | Cc1cc(-c2ccoc2)ncc1Nc1ncc2c(n1)n(C1CCOCC1)c(=O)n2C | 99.8% | –
– | – | Cn1c(=O)n(C2CCOCC2)c2nc(Nc3ccc(-c4ccc5c(c4)OCO5)nc3)ncc21 | 85.8% | –
– | 8.05 | Cc1cc(-c2cnn(C)c2)ncc1Nc1ncc2c(n1)n(C1CCCCC1C)c(=O)n2C (stereo not drawn) | 86.7% | –
2.51 h | 8.10 | Cn1cc(-c2ccc3c(c2)CCN3c2ncc3c(n2)n(C2CCOCC2)c(=O)n3C)cn1 | 97.6% | –
128 h | 8.22 | Cc1cc(-c2cn(C)nc2C)ncc1Nc1ncc2c(n1)n(C1CCOCC1)c(=O)n2C | 77.4% | –
0.0373 h | – | Cc1cc(-c2cnn(C)c2)ncc1Nc1ncc2c(n1)n([C@@]13C[C@@H]4C[C@@](C)(C[C@@](C)(C4)C1)C3)c(=O)n2C | 83.9% | –
– | – | COc1ccc(-c2ccc(Nc3ncc4c(n3)n(C3CCOCC3)c(=O)n4C)c(C)n2)cc1OC | 28.3% | –
– | 9.05 | Cc1cc(-c2cnn(C)c2)ncc1Nc1ncc2c(n1)n(C1CCNCC1)c(=O)n2C | 46.8% | –
– | – | COc1cc(-c2cc(C)c(Nc3ncc4c(n3)n(C3CCOCC3)c(=O)n4C)cn2)cc(OC)c1OC | -11.4% | –
2.51 h | 9.10 | Cc1cc(-c2ccsc2)ncc1Nc1ncc2c(n1)n(C1CCOCC1)c(=O)n2C | 99.8% | pIC50 [4]: 8.42; Activity [5]: Active
– | 9.00 | Cc1cc(-c2cnn(C)c2)ncc1Nc1ncc2c(n1)n(C1CCN(S(C)(=O)=O)CC1)c(=O)n2C | 30.4% | –
0.352 h | 7.89 | Cn1c(=O)n(C2CCOCC2)c2nc(N3CCc4cc(C#N)ccc43)ncc21 | 84.7% | –
– | 8.52 | Cc1cc(-c2cnn(C)c2)ncc1Nc1ncc2c(n1)n(C1CCN(C(=O)C3CC3)CC1)c(=O)n2C | 66.9% | –
3.04 h | 8.70 | Cc1ccc(-c2cnn(C)c2)cc1Nc1ncc2c(n1)n(C1CCOCC1)c(=O)n2C | 98% | –
– | 7.89 | Cc1cc(-c2ncn(C)n2)ccc1Nc1ncc2c(n1)n(C1CCOCC1)c(=O)n2C | 56.1% | –
– | 8.02 | Cc1nc(-c2ccnn2C)ccc1Nc1ncc2c(n1)n(C1CCOCC1)c(=O)n2C | – | –
– | 6.79 | COc1ccc(-c2ccc(Nc3ncc4c(n3)n(C3CCOCC3)c(=O)n4C)c(C)n2)cn1 | 29.9% | –
– | – | Cn1c(=O)n(C2CCOCC2)c2nc(N3CCc4cc(S(C)(=O)=O)ccc43)ncc21 | 5.8% | –
14.4 h | 8.10 | Cc1cc(-c2ccnn2C)ncc1Nc1ncc2c(n1)n(C1CCOCC1)c(=O)n2C | 95% | –
– | – | Cc1cc(-c2cnn(C)c2C)ncc1Nc1ncc2c(n1)n(C1CCOCC1)c(=O)n2C | 28% | –

half-life at 5 min, 1 µM [2] | pIC50 [3] | SMILES | inhibition at […] [1] | further results
– | – | Cc1cc(-c2cnn(C)c2)ncc1Nc1ncc2c(n1)n(CC1CCOCC1)c(=O)n2C | 42.8% | –
– | – | Cc1cc(-c2cnn(C)c2)cnc1Nc1ncc2c(n1)n(C1CCOCC1)c(=O)n2C | -0.2% | –
– | – | Cc1cc(-c2cccnc2)ncc1Nc1ncc2c(n1)n(C1CCOCC1)c(=O)n2C | 97.4% | –
– | – | Cc1cc(-c2c(C)noc2C)ncc1Nc1ncc2c(n1)n(C1CCOCC1)c(=O)n2C | 25% | –
– | 8.00 | Cc1ncc(-c2cnn(C)c2)cc1Nc1ncc2c(n1)n(C1CCOCC1)c(=O)n2C | 74.3% | –
1.2 h | 7.60 | Cc1nc(-c2cn[nH]c2)ccc1Nc1ncc2c(n1)n(C1CCOCC1)c(=O)n2C | 27.7% | –
3.04 h | 8.70 | Cc1cc(-c2cnn(C)c2)ncc1Nc1ncc2c(n1)n(C1CCN(S(=O)(=O)C3CC3)CC1)c(=O)n2C | 84.9% | –
– | – | Cc1cc(-c2ccc3c(c2)OCCO3)ncc1Nc1ncc2c(n1)n(C1CCOCC1)c(=O)n2C | 60% | –
– | 8.30 | Cc1cc(-c2cnn(C)c2)ncc1Nc1ncc2c(n1)n(C1CCN(S(=O)(=O)C(F)(F)F)CC1)c(=O)n2C | 86.7% | –
– | – | Cc1cc(-c2cccc(S(C)(=O)=O)c2)ncc1Nc1ncc2c(n1)n(C1CCOCC1)c(=O)n2C | 19.3% | –
4.81 h | – | Cc1cnc(-c2cnn(C)c2)cc1Nc1ncc2c(n1)n(C1CCOCC1)c(=O)n2C | 99.4% | pIC50 [4]: 7.56; Activity [5]: Active; half-life at 24 h [6]: 11.6 h; half-life at 24 h [7]: 7.08 h; CL/F at 24 h [8]: 16 mL/min/kg; clearance at 24 h [9]: 11.7 mL/min/kg; AUC(0-t) at 24 h [10]: 6470 ng·h/mL; AUC(0-t) at 24 h [11]: 7300 ng·h/mL; Cmax at 24 h [12]: 406 ng/mL; Cmax at 24 h [13]: 1320 ng/mL; bioavailability at 24 h [14]: 88.5%
– | 9.00 | CC(=O)N1CCC(n2c(=O)n(C)c3cnc(Nc4cnc(-c5cnn(C)c5)cc4C)nc32)CC1 | 14.7% | –
– | – | COc1cc2c(cc1OC)N(c1ncc3c(n1)n(C1CCOCC1)c(=O)n3C)CC2 | 89.8% | –
– | – | Cn1c(=O)n(C2CCOCC2)c2nc(N3CCc4cc(F)c(F)cc43)ncc21 | 8.2% | –
0.235 h | – | Cc1cc(-c2coc(C=O)c2)ncc1Nc1ncc2c(n1)n(C1CCOCC1)c(=O)n2C | 96.9% | –
– | 7.92 | Cc1cc(-c2cnn(C)c2)ncc1Nc1ncc2c(n1)n(C1CCN(C(=O)C3CC3(F)F)CC1)c(=O)n2C (stereo not drawn) | 47.3% | –
– | – | Cn1c(=O)n(C2CCOCC2)c2nc(N3CCc4ccc([N+](=O)[O-])cc43)ncc21 | 12.5% | –
– | – | Cc1cc(-c2cncnc2)ncc1Nc1ncc2c(n1)n(C1CCOCC1)c(=O)n2C | 22.9% | –
– | – | Cc1cc(-c2cnn(C(C)C)c2)ncc1Nc1ncc2c(n1)n(C1CCOCC1)c(=O)n2C | 12.6% | –
– | 8.28 | COc1cncc(-c2ccc(Nc3ncc4c(n3)n(C3CCOCC3)c(=O)n4C)c(C)n2)c1 | – | –

half-life at 5 min, 1 µM [2] | pIC50 [3] | SMILES | inhibition at […] [1] | further results
0.138 h | 8.22 | COc1ccc2c(c1)CCN2c1ncc2c(n1)n(C1CCOCC1)c(=O)n2C | 86.1% | –
– | – | Cc1cc(-c2cnn(C)c2)ncc1Nc1ncc2c(n1)n(C1CCN(C(=O)[C@@H]3C[C@H]3F)CC1)c(=O)n2C | 28.3% | –
0.963 h | 9.40 | Cc1cc(-c2cn[nH]c2)ncc1Nc1ncc2c(n1)n(C1CCOCC1)c(=O)n2C | 86.7% | –
– | – | Cn1c(=O)n(C2CCOCC2)c2nc(N3CCc4cc(C(F)(F)F)ccc43)ncc21 | 41% | –
1.2 h | – | Cn1c(=O)n(C2CCOCC2)c2nc(N3CCc4ccccc43)ncc21 | -11.6% | –
– | – | Cc1cc(-c2cnn(C3CC3)c2)ncc1Nc1ncc2c(n1)n(C1CCOCC1)c(=O)n2C | 63.3% | –
– | – | Cc1cc(-c2ccco2)ncc1Nc1ncc2c(n1)n(C1CCOCC1)c(=O)n2C | 99.7% | –
– | – | Cc1cc(-c2cnn(C)c2)ccc1Nc1ncc2c(n1)n(C1CCOCC1)c(=O)n2C | 58.5% | –
28.9 h | 8.22 | Cc1cc(-c2cnn(C)c2)ncc1Nc1ncc2c(n1)n([C@H]1CCOC1)c(=O)n2C | 90.7% | –
– | – | Cc1nc(-c2cnn(C)c2)ncc1Nc1ncc2c(n1)n(C1CCOCC1)c(=O)n2C | 63.2% | –
– | – | Cc1cc(-c2c(C)nn(C)c2C)ncc1Nc1ncc2c(n1)n(C1CCOCC1)c(=O)n2C | 22.9% | –
1.96 h | 10.00 | Cc1cc(-c2cccs2)ncc1Nc1ncc2c(n1)n(C1CCOCC1)c(=O)n2C | 97.9% | pIC50 [4]: 7.82; Activity [5]: Active; half-life at 24 h [6]: 7.34 h; half-life at 24 h [7]: 3.45 h; CL/F at 24 h [8]: 204 mL/min/kg; clearance at 24 h [9]: 306 mL/min/kg; AUC(0-t) at 24 h [10]: 277 ng·h/mL; AUC(0-t) at 24 h [11]: 278 ng·h/mL; Cmax at 24 h [12]: 23.8 ng/mL; Cmax at 24 h [13]: 23.3 ng/mL; bioavailability at 24 h [14]: 99.6%
– | – | Cc1cc(-c2cnoc2)ncc1Nc1ncc2c(n1)n(C1CCOCC1)c(=O)n2C | 32.8% | –
0.642 h | – | Cc1ccc(-c2cc(C)c(Nc3ncc4c(n3)n(C3CCOCC3)c(=O)n4C)cn2)o1 | 76.7% | –
– | – | Cc1nc(-c2cnn(C)c2)ccc1Nc1ncc2c(n1)n(C1CCOCC1)c(=O)n2C | 23.3% | –
– | 8.30 | COC(=O)c1ccc2c(c1)CCN2c1ncc2c(n1)n(C1CCOCC1)c(=O)n2C | 48.1% | –
1.99 h | 8.40 | Cc1cc(-c2cn(C)nc2C(F)(F)F)ncc1Nc1ncc2c(n1)n(C1CCOCC1)c(=O)n2C | 63.9% | –
– | 9.00 | CC(=O)c1ccc2c(c1)CCN2c1ncc2c(n1)n(C1CCOCC1)c(=O)n2C | 32.6% | –
– | – | COc1ncc(-c2cc(C)c(Nc3ncc4c(n3)n(C3CCOCC3)c(=O)n4C)cn2)cn1 | 34% | –
– | – | Cc1cc(-c2cnn(C)c2)ncc1Nc1ncc2c(n1)n(C1CC1)c(=O)n2C | 53.1% | –

— ChEMBL document CHEMBL5532664, “Discovery, Optimization, and Evaluation of Potent and Selective DNA-PK Inhibitors in Combination with Chemotherapy or Radiotherapy for the Treatment of Malignancies” (J Med Chem, 2024)
